What was measured:
[1] = system: Mycosphaerella graminicola (Septoria tritici); assay: Example B21: Mycosphaerella graminicola (Septoria tritici)/Liquid Culture (Septoria Blotch); type: cell-based; details: Zymoseptoria tritici, liquid culture, photometrically 4-5 days after application, read-out: control of Mycosphaerella graminicola
Experimental: Example B21: Mycosphaerella graminicola (Septoria tritici)/Liquid Culture (Septoria Blotch)
(§1) Conidia of the fungus from cryogenic storage are directly mixed into nutrient broth (PDB potato dextrose broth). After placing a (DMSO) solution of test compound into a microtiter plate (96-well format), the nutrient broth containing the fungal spores is added. The test plates are incubated at 24° C. and the inhibition of growth is determined photometrically 4-5 days after application.

[2] = system: Alternaria solani; assay: Example B1: Alternaria solani/Tomato/Leaf Disc (Early Blight); type: in vivo; details: foliar, tomato leaf disks, inoculated 2 days after application, compared to untreated control
Experimental: Example B1: Alternaria solani/Tomato/Leaf Disc (Early Blight)
Tomato leaf disks cv. Baby are placed on agar in multiwell plates (24-well format) and sprayed with the formulated test compound diluted in water. The leaf disks are inoculated with a spore suspension of the fungus 2 days after application. The inoculated leaf disks are incubated at 23° C./21° C. (day/night) and 80% rh under a light regime of 12/12 h (light/dark) in a climate cabinet and the activity of a compound is assessed as percent disease control compared to untreated when an appropriate level of disease damage appears on untreated check leaf disks (5-7 days after application).

[3] = system: Mycosphaerella arachidis (Cercospora arachidicola); assay: Example B13: Mycosphaerella arachidis (Cercospora arachidicola)/Liquid Culture (Early Leaf Spot); type: cell-based; details: liquid culture, photometrically 4 to 5 days after application, read-out: control of Mycosphaerella arachidis
Experimental: Example B13: Mycosphaerella arachidis (Cercospora arachidicola)/Liquid Culture (Early Leaf Spot)
as §1, with “4 to 5” for “4-5”

[4] = system: Glomerella lagenarium (Colletotrichum lagenarium); assay: Example B5: Glomerella lagenarium (Colletotrichum lagenarium)/Liquid Culture (Anthracnose); type: cell-based; details: Colletotrichum orbiculare, liquid culture, photometrically 3 to 4 days after application, read-out: control of Glomerella lagenarium
Experimental: Example B5: Glomerella lagenarium (Colletotrichum lagenarium)/Liquid Culture (Anthracnose)
as §1, with “measured” for “determined”, “3 to 4” for “4-5”

[5] = system: Pyrenophora teres; assay: Example B18: Pyrenophora teres/Barley/Leaf Disc Preventative (Net Blotch); type: in vivo; details: foliar, barley leaf segments, inoculated 2 days after application
Experimental: Example B18: Pyrenophora teres/Barley/Leaf Disc Preventative (Net Blotch)
Barley leaf segments cv. Hasso are placed on agar in a multiwell plate (24-well format) and sprayed with the formulated test compound diluted in water. The leaf segments are inoculated with a spore suspension of the fungus 2 days after application. The inoculated leaf segments are incubated at 20° C. and 65% rh under a light regime of 12 h light/12 h darkness in a climate cabinet and the activity of a compound is assessed as disease control compared to untreated when an appropriate level of disease damage appears in untreated check leaf segments (5-7 days after application).

[6] = system: Gibberella zeae (Fusarium graminearum); type: in vivo; details: 200 ppm; wheat spikelets, preventative, inoculated one day after application
[7] = system: Botryotinia fuckeliana (Botrytis cinerea); assay: Example B2: Botryotinia fuckeliana (Botrytis cinerea)/Liquid Culture (Gray Mould); type: cell-based; details: liquid culture, growth inhibition photometrically 3 to 4 days after application, read-out: control of Botryotinia fuckeliana
Experimental: Example B2: Botryotinia fuceliana (Botrytis cinerea)/Liquid Culture (Gray Mould)
as §1, with “(Vogels” for “(PDB potato dextrose”, “3 to 4” for “4-5”

[8] = system: Monographella nivalis (Microdochium nivale); assay: Example B12: Monographella nivalis (Microdochium nivale)/Liquid Culture (Foot Rot Cereals); type: cell-based; details: liquid culture, photometrically 4 to 5 days after application, read-out: control of Monographella nivalis
Experimental: Example B12: Monographella nivalis (Microdochium nivale)/Liquid Culture (Foot Rot Cereals)
as §1, with “4 to 5” for “4-5”

[9] = system: Phaeosphaeria nodorum (Septoria nodorum); assay: Example B11: Phaeosphaeria nodorum (Septoria nodorum)/Wheat/Leaf Disc Preventative (Glume Blotch); type: in vivo; details: Parastagonospora nodorum, foliar, wheat leaf segments, inoculated 2 days after application
Experimental: Example B11: Phaeosphaeria nodorum (Septoria nodorum)/Wheat/Leaf Disc Preventative (Glume Blotch)
Wheat leaf segments cv. Kanzler are placed on agar in a multiwell plate (24-well format) and sprayed with the formulated test compound diluted in water. The leaf disks are inoculated with a spore suspension of the fungus 2 days after application. The inoculated test leaf disks are incubated at 20° C. and 75% rh under a light regime of 12 h light/12 h darkness in a climate cabinet and the activity of a compound is assessed as percent disease control compared to untreated when an appropriate level of disease damage appears in untreated check leaf disks (5-7 days after application).

[10] = system: Fusarium culmorum; type: in vivo; details: 200 ppm; wheat spikelets, preventative, inoculated 1 day after application
[11] = Comparison of fungicidal activity of the separated stereoisomers (peaks 1 to 4); details: SFC-separated stereoisomers of Example P3
[12] = system: Magnaporthe grisea (Pyricularia oryzae); type: in vivo; details: 200 ppm; rice leaf segments, preventative, inoculated 2 days after application
[13] = system: Thanatephorus cucumeris (Rhizoctonia solani); assay: Example B19: Thanatephorus cucumeris (Rhizoctonia solani)/Liquid Culture (Foot Rot, Damping-Off); type: cell-based; details: 20 ppm; liquid culture, photometrically 3-4 days after application
Experimental: Example B19: Thanatephorus cucumeris (Rhizoctonia solani)/Liquid Culture (Foot Rot, Damping-Off)
Mycelia fragments of a newly grown liquid culture of the fungus are directly mixed into nutrient broth (PDB potato dextrose broth). After placing a (DMSO) solution of the test compounds into a microtiter plate (96-well format), the nutrient broth containing the fungal material is added. The test plates are incubated at 24° C. and the inhibition of growth is determined photometrically 3-4 days after application.

[14] = system: Puccinia recondita f. sp. tritici; assay: Example B16: Puccinia recondita f. sp. tritici/Wheat/Leaf Disc Preventative (Brown Rust); type: in vivo; details: 200 ppm, wheat leaf segments, inoculated 1 day after application
Experimental: Example B16: Puccinia recondita f. sp. tritici/Wheat/Leaf Disc Preventative (Brown Rust)
Wheat leaf segments cv. Kanzler are placed on agar in multiwell plates (24-well format) and sprayed with the formulated test compound diluted in water. The leaf disks are inoculated with a spore suspension of the fungus 1 day after application. The inoculated leaf segments are incubated at 19° C. and 75% rh under a light regime of 12 h light/12 h darkness in a climate cabinet and the activity of a compound is assessed as percent disease control compared to untreated when an appropriate level of disease damage appears in untreated check leaf segments (7-9 days after application).

[15] = system: Plasmopara viticola; type: in vivo; details: 200 ppm; grape vine leaf disks, preventative, inoculated 1 day after application

With `Cc1c([C@H]2CN(C(=O)c3cc(-c4ncc(F)cc4F)on3)[C@@H](C)c3ccccc32)cnn1C` (racemic) [X.21, [5-(3,5-difluoro-2-pyridyl)isoxazol-3-yl]-[rac-(1S,4S)-4-(1,5-dimethylpyrazol-4-yl)-1-methyl-3,4-dihydro-1H-isoquinolin-2-yl]methanone] the inhibition of growth at 20 ppm [1] was ≥ 80%, the pest or weed control at 200 ppm [2] was ≥ 80% and the inhibition of growth at 20 ppm [3] was ≥ 80%. For the same compound, the inhibition of growth at 20 ppm [4] was ≥ 80%, the pest or weed control at 200 ppm [5] was ≥ 80% and the “control of Gibberella zeae” value [6] was “at least 80%”. The inhibition of growth at 20 ppm [7] was ≥ 80%, the inhibition of growth at 20 ppm [8] was ≥ 80% and the pest or weed control at 200 ppm [9] was ≥ 80%. The “control of Fusarium culmorum” value [10] was “at least 80%”.

For `C[C@H]1c2ccccc2[C@@](C)(c2cnn(C)c2)CN1C(=O)c1cc(-c2ccc(F)cc2F)on1` (single isomer, unassigned) [X.22], the “fungicidal activity compared with the other enantiomer” value [11] was “more fungicidally active than the compound of peak 3”.

With `C[C@@H]1c2ccccc2[C@@](C)(c2cnn(C)c2)CN1C(=O)c1cc(-c2ccc(F)cc2F)on1` (single isomer, unassigned) [peak 1] the “fungicidal activity compared with the other enantiomer” value [11] was “more fungicidally active than the compound of peak 2”.

In the case of `Cc1c(C2CN(C(=O)c3nc(-c4ccc(F)cc4F)no3)Cc3ccccc32)cnn1C` (stereo not drawn) [X.02, [3-(2,4-difluorophenyl)-1,2,4-oxadiazol-5-yl]-[4-(1,5-dimethylpyrazol-4-yl)-3,4-dihydro-1H-isoquinolin-2-yl]methanone], the inhibition of growth at 20 ppm [1] is reported as ≥ 80%, the pest or weed control at 200 ppm [2] is reported as ≥ 80% and the inhibition of growth at 20 ppm [3] is reported as ≥ 80%. The inhibition of growth at 20 ppm [4] was ≥ 80%, the inhibition of growth at 20 ppm [7] was ≥ 80% and the inhibition of growth at 20 ppm [8] was ≥ 80%. For the same compound, the pest or weed control at 200 ppm [9] was ≥ 80%.

For `Cn1cc(C2(C)CN(C(=O)c3cc(-c4ccc(F)cc4F)on3)Cc3ccccc32)cn1` (stereo not drawn) [X.14, [5-(2,4-difluorophenyl)isoxazol-3-yl]-[4-methyl-4-(1-methylpyrazol-4-yl)-1,3-dihydroisoquinolin-2-yl]methanone], the inhibition of growth at 20 ppm [1] was ≥ 80%, the inhibition of growth at 20 ppm [3] was ≥ 80% and the inhibition of growth at 20 ppm [4] was ≥ 80%. For the same compound, the pest or weed control at 200 ppm [5] was ≥ 80%, the inhibition of growth at 20 ppm [7] was ≥ 80% and the inhibition of growth at 20 ppm [8] was ≥ 80%. For the same compound, the pest or weed control at 200 ppm [9] was ≥ 80%.

In the case of `Cc1c(C2CN(C(=O)c3cc(-c4ccc(F)cc4F)on3)Cc3ccccc32)cnn1C` (stereo not drawn) [X.16, [5-(2,4-difluorophenyl)isoxazol-3-yl]-[4-(1,5-dimethylpyrazol-4-yl)-3,4-dihydro-1H-isoquinolin-2-yl]methanone], the inhibition of growth at 20 ppm [1] is reported as ≥ 80%, the inhibition of growth at 20 ppm [3] is reported as ≥ 80% and the inhibition of growth at 20 ppm [4] is reported as ≥ 80%. The pest or weed control at 200 ppm [5] was ≥ 80%, the “control of Magnaporthe grisea” value [12] was “at least 80%” and the “control of Thanatephorus cucumeris” value [13] was “at least 80%”. For the same compound, the inhibition of growth at 20 ppm [7] was ≥ 80%, the inhibition of growth at 20 ppm [8] was ≥ 80% and the pest or weed control at 200 ppm [9] was ≥ 80%. The “control of Puccinia recondita f. sp. tritici” value [14] was “at least 80%”.

In the case of `Cn1cc(C2CN(C(=O)c3noc(-c4ccccc4)n3)Cc3ccccc32)cn1` (stereo not drawn) [X.17, [4-(1-methylpyrazol-4-yl)-3,4-dihydro-1H-isoquinolin-2-yl]-(5-phenyl-1,2,4-oxadiazol-3-yl)methanone], the inhibition of growth at 20 ppm [1] is reported as ≥ 80%, the “control of Plasmopara viticola” value [15] is reported as “at least 80%” and the inhibition of growth at 20 ppm [3] is reported as ≥ 80%. The inhibition of growth at 20 ppm [7] was ≥ 80%, the inhibition of growth at 20 ppm [8] was ≥ 80% and the pest or weed control at 200 ppm [9] was ≥ 80%.

— patent US20260198498A1, “FUNGICIDAL COMPOSITIONS” (SYNGENTA CROP PROTECTION AG, priority 2022, published 2026)
